Experimental data as given in ChEMBL document CHEMBL1201862, “PubChem BioAssay data set” (2004).
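These data come from cells grown in 96-well plates and exposed to compound for 48 hours at five concentrations. The concentration for 50% growth inhibition is given as GI50.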 Calls of active or inactive are those of the source. No stated cut-off is given here; in the data, active = GI50 up to about 1.1 µM and inactive = higher. Residues, ends and D or L forms follow the SMILES beside them. *: point of attachment. Fmoc = O=C(OCC1c2ccccc2-c2ccccc21)*; Boc = CC(C)(C)OC(=O)*

Experiments:
Assay in all cases: NCI anticancer screen, dose series, 48 h
M14 = system: M14
OVCAR-8 = system: OVCAR-8
ACHN = system: ACHN
LOX IMVI = system: LOX IMVI
K562 = system: K562
DU-145 = system: DU-145
NCI-H460 = system: NCI-H460
OVCAR-4 = system: OVCAR-4
HOP-62 = system: HOP-62
OVCAR-5 = system: OVCAR-5
A498 = system: A498
SK-OV-3 = system: SK-OV-3
MCF7 = system: MCF7
NCI-H522 = system: NCI-H522
U-251 = system: U-251
SF-268 = system: SF-268
MOLT-4 = system: MOLT-4
HCT-15 = system: HCT-15
RPMI-8226 = system: RPMI-8226
HCC 2998 = system: HCC 2998

Structure (SMILES)	GI50 (M14)	GI50 (OVCAR-8)	GI50 (ACHN)	GI50 (LOX IMVI)	GI50 (K562)	GI50 (DU-145)	GI50 (NCI-H460)	GI50 (OVCAR-4)	GI50 (HOP-62)	GI50 (OVCAR-5)	GI50 (A498)	GI50 (SK-OV-3)	GI50 (MCF7)	GI50 (NCI-H522)	GI50 (U-251)	GI50 (SF-268)	GI50 (MOLT-4)	GI50 (HCT-15)	GI50 (RPMI-8226)	GI50 (HCC 2998)
COC(=O)c1ccc(NCC2=CC(=O)C=CC2=O)cc1O	20.9 µM (inactive)	15.5 µM (inactive)	13.8 µM (inactive)	16.8 µM (inactive)	3.33 µM (inactive)	15.2 µM (inactive)	21 µM (inactive)	16.6 µM (inactive)	18.1 µM (inactive)	18.8 µM (inactive)	17.2 µM (inactive)	20.4 µM (inactive)	20.8 µM (inactive)	2.11 µM (inactive)	36.5 µM (inactive)	28.9 µM (inactive)	8.87 µM (inactive)	16.5 µM	–	–
COc1ccc(-c2sc(Br)c3c2C(=O)C2OC(=O)NC32)cc1OC (stereo unspecified)	> 100 µM (inactive)	> 100 µM (inactive)	> 100 µM (inactive)	45.2 µM (inactive)	> 100 µM (inactive)	> 100 µM (inactive)	> 100 µM (inactive)	> 100 µM (inactive)	> 100 µM (inactive)	> 100 µM (inactive)	> 100 µM (inactive)	> 100 µM (inactive)	> 100 µM (inactive)	> 100 µM (inactive)	> 100 µM (inactive)	> 100 µM (inactive)	> 100 µM (inactive)	> 100 µM	> 100 µM (inactive)	–
C=C1CC(C)(COc2ccc3c(C)c(Cl)c(=O)oc3c2)OC1=O (stereo unspecified)	1.26 µM (inactive)	2.75 µM (inactive)	2.82 µM (inactive)	0.964 µM (active)	0.518 µM (active)	2.4 µM (inactive)	6.97 µM (inactive)	2.31 µM (inactive)	10.3 µM (inactive)	4.23 µM (inactive)	–	4.88 µM (inactive)	1.24 µM (inactive)	0.632 µM (active)	7.82 µM (inactive)	3.52 µM (inactive)	1.05 µM (active)	2.03 µM	0.391 µM (active)	1.81 µM (inactive)
CCc1nnc(CC)n1N1C(=O)CCC1=O	> 100 µM (inactive)	> 100 µM (inactive)	> 100 µM (inactive)	> 100 µM (inactive)	> 100 µM (inactive)	> 100 µM (inactive)	–	> 100 µM (inactive)	> 100 µM (inactive)	> 100 µM (inactive)	–	> 100 µM (inactive)	> 100 µM (inactive)	> 100 µM (inactive)	> 100 µM (inactive)	> 100 µM (inactive)	> 100 µM (inactive)	> 100 µM	> 100 µM (inactive)	> 100 µM (inactive)
O=C1NC(Cc2c[nH]c3ccccc23)C(=O)N2C(c3ccccc3)c3[nH]c4ccccc4c3C[C@@H]12 (stereo partly specified)	21.6 µM (inactive)	31.3 µM (inactive)	29.4 µM (inactive)	19.7 µM (inactive)	21 µM (inactive)	32.3 µM (inactive)	–	26.9 µM (inactive)	17.2 µM (inactive)	22 µM (inactive)	29.8 µM (inactive)	31.3 µM (inactive)	15.7 µM (inactive)	18.1 µM (inactive)	19.5 µM (inactive)	26.1 µM (inactive)	12.6 µM (inactive)	21.7 µM	20 µM (inactive)	–
CC(C)(C)OC(=O)NCCCCC(NC(=O)C(Cc1c[nH]c2ccccc12)NC(=O)OCC1c2ccccc2-c2ccccc21)C(=O)N1CCCC1C(=O)NCC(N)=O (stereo unspecified) (Fmoc-WK(Boc)PG-NH2; configuration not given here)	60.5 µM (inactive)	> 100 µM (inactive)	> 100 µM (inactive)	> 100 µM (inactive)	> 100 µM (inactive)	> 100 µM (inactive)	> 100 µM (inactive)	> 100 µM (inactive)	> 100 µM (inactive)	> 100 µM (inactive)	–	1.59 µM (inactive)	> 100 µM (inactive)	> 100 µM (inactive)	> 100 µM (inactive)	> 100 µM (inactive)	> 100 µM (inactive)	> 100 µM	> 100 µM (inactive)	> 100 µM (inactive)
